Data: patent US12029814B1, “Formulation of ear drops and methods for delivery thereof for treating upper respiratory infections” (priority 2023, dated 2024)

Key:
Format in all cases: cell-based
SARS-COV-2 XBB1.5 = tested on: SARS-COV-2 XBB1.5
SARS-COV-2 BA.2 = tested on: SARS-COV-2 BA.2
SARS-COV-2 BA.1 = tested on: SARS-COV-2 BA.1
[1] = tested on: original WA1 viral strain of SARS-COV-2; assay: in vitro infectivity of epithelial cells expressing ACE-2 and TMPRSS-2, virus-NP protein in culture media; settings: MOI 0.01
SARS-COV-2 XBB = tested on: SARS-COV-2 XBB
SARS-COV-2 BA.5 = tested on: SARS-COV-2 BA.5

**Q.** What does the source list for hemin?
**A.** replication of SARS-COV-2 XBB1.5 (SARS-COV-2 XBB1.5): significantly suppressed replication; replication of SARS-COV-2 BA.2 (SARS-COV-2 BA.2): significantly suppressed replication; cellular protection against SARS-COV-2 BA.1 infection (SARS-COV-2 BA.1): protected cells; inhibition of SARS-COV-2 BA.1 (dose response) (SARS-COV-2 BA.1): dose-dependent inhibition; SARS-COV-2 infection, original WA1 viral strain [1]: markedly suppressed; replication of SARS-COV-2 XBB (SARS-COV-2 XBB): significantly suppressed replication; replication of SARS-COV-2 BA.5 (SARS-COV-2 BA.5): significantly suppressed replication
